# Measured values reported in ChEMBL document CHEMBL5241112, “Insights into the recent progress in the medicinal chemistry of pyranopyrimidine analogs” (RSC Med Chem, 2022).
# pIC50: −log10 of the molar value.
# Experiments:
# [1] = system: HepG2; experiment: Anticancer activity against human HepG2 cells assessed as reduction in cell viability; type: functional, cell-based
# [2] = system: MCF7; experiment: Anticancer activity against human MCF7 cells assessed as reduction in cell viability; type: functional, cell-based
# [3] = molecular target: DNA topoisomerase II (Homo sapiens, UniProt P11388+Q02880); experiment: Inhibition of DNA topoisomerase 2 (unknown origin); type: protein assay
# [4] = system: HCT-116; experiment: cells; settings: Homo sapiens
# [5] = molecular target: DNA; experiment: Binding affinity to DNA (unknown origin) assessed as DNA intercalation; type: nucleic-acid assay
# [6] = system: NUGC; experiment: Anticancer activity against human NUGC cells assessed as cell growth inhibition incubated for 24 hrs; type: functional, cell-based
# [7] = system: DLD-1; experiment: Anticancer activity against human DLD-1 cells assessed as cell growth inhibition incubated for 24 hrs; type: functional, cell-based; settings: DLD-1, 24 h
# [8] = molecular target: Hydroxycarboxylic acid receptor 2 (Homo sapiens, UniProt Q8TDS4); experiment: Agonist activity at human HCA2 expressed in human Flp-In-293 cells assessed as inhibition of forskolin-stimulated cAMP accumulation at 50 uM incubated for 30 mins by Lance cAMP assay; type: cell-based; settings: filed as agonist
# [9] = system: PC-3; experiment: Anticancer activity against human PC-3 cells assessed as reduction in cell viability; type: functional, cell-based
# [10] = system: Staphylococcus aureus; experiment: Antimicrobial activity against Staphylococcus aureus assessed as diameter of inhibition zone at 1.2 mg/ml incubated for 12 hrs by agar disk diffusion method; type: functional
# [11] = system: Escherichia coli; experiment: Antimicrobial activity against Escherichia coli assessed as diameter of inhibition zone at 5.0 mg/ml incubated for 12 hrs by agar disk diffusion method; type: functional
# [12] = system: Bacillus cereus; experiment: Antimicrobial activity against Bacillus cereus assessed as diameter of inhibition zone at 1.2 mg/ml incubated for 12 hrs by agar disk diffusion method; type: functional
# [13] = system: Escherichia coli; experiment: Antibacterial activity against Escherichia coli ATCC 25922 assessed as inhibition of bacterial growth incubated for 24 hrs by broth macrodilution method; type: functional
# [14] = system: Bacillus cereus; experiment: Antimicrobial activity against Bacillus cereus assessed as diameter of inhibition zone at 2.5 mg/ml incubated for 12 hrs by agar disk diffusion method; type: functional
# [15] = system: Pseudomonas aeruginosa; experiment: Antibacterial activity against Pseudomonas aeruginosa ATCC 27853 assessed as inhibition of bacterial growth incubated for 24 hrs by broth macrodilution method; type: functional
# [16] = system: Escherichia coli; experiment: Antimicrobial activity against Escherichia coli assessed as diameter of inhibition zone at 2.5 mg/ml incubated for 12 hrs by agar disk diffusion method; type: functional
# [17] = system: Pseudomonas aeruginosa; experiment: Antimicrobial activity against Pseudomonas aeruginosa assessed as diameter of inhibition zone at 1.2 mg/ml incubated for 12 hrs by agar disk diffusion method; type: functional
# [18] = system: Pseudomonas aeruginosa; experiment: Antimicrobial activity against Pseudomonas aeruginosa assessed as diameter of inhibition zone at 5.0 mg/ml incubated for 12 hrs by agar disk diffusion method; type: functional
# [19] = system: Pseudomonas aeruginosa; experiment: Antibacterial activity against Pseudomonas aeruginosa ATCC 27853 assessed as diameter of inhibition zone incubated for 24 hrs by disc diffusion assay; type: functional
# [20] = system: Bacillus cereus; experiment: Antimicrobial activity against Bacillus cereus assessed as diameter of inhibition zone at 5.0 mg/ml incubated for 12 hrs by agar disk diffusion method; type: functional
# [21] = system: Staphylococcus aureus; experiment: Antimicrobial activity against Staphylococcus aureus assessed as diameter of inhibition zone at 2.5 mg/ml incubated for 12 hrs by agar disk diffusion method; type: functional
# [22] = system: Staphylococcus aureus; experiment: Antimicrobial activity against Staphylococcus aureus assessed as diameter of inhibition zone at 5.0 mg/ml incubated for 12 hrs by agar disk diffusion method; type: functional
# [23] = system: Pseudomonas aeruginosa; experiment: Antimicrobial activity against Pseudomonas aeruginosa assessed as diameter of inhibition zone at 2.5 mg/ml incubated for 12 hrs by agar disk diffusion method; type: functional
# [24] = system: Escherichia coli; experiment: Antibacterial activity against Escherichia coli ATCC 25922 assessed as diameter of inhibition zone incubated for 24 hrs by disc diffusion assay; type: functional
# [25] = system: Escherichia coli; experiment: Antimicrobial activity against Escherichia coli assessed as diameter of inhibition zone at 1.2 mg/ml incubated for 12 hrs by agar disk diffusion method; type: functional
# [26] = Antioxidant activity assessed as DPPH radical scavenging activity at 25 ug/ml incubated for 30 mins by spectrophotometric analysis; type: functional; settings: dose 25.0 µg/ml
# [27] = system: Mycobacterium tuberculosis; experiment: Antitubercular activity against Mycobacterium tuberculosis H37Rv assessed as bacterial growth inhibition at 250 ug/ml; type: functional
# [28] = system: Mycobacterium tuberculosis; experiment: Antitubercular activity against Mycobacterium tuberculosis H37Rv assessed as bacterial growth inhibition at 100 ug/ml; type: functional
# [29] = system: Clostridium tetani; experiment: Antibacterial activity against Clostridium tetani MTCC 449 assessed as bacterial growth inhibition by broth microdilution method; type: functional
# [30] = system: Salmonella typhimurium; experiment: Antibacterial activity against Salmonella typhimurium MTCC 98 assessed as bacterial growth inhibition by broth microdilution method; type: functional, Salmonella enterica subsp. enterica serovar Typhimurium; settings: Salmonella enterica
# [31] = system: Candida albicans; experiment: Antifungal activity against Candida albicans MTCC 3008 assessed as fungal growth inhibition by broth microdilution method; type: functional
# [32] = system: Plasmodium falciparum; experiment: microbe, parasite or virus in culture
# [33] = system: Aspergillus fumigatus; experiment: Antifungal activity against Aspergillus fumigatus MTCC 227 assessed as fungal growth inhibition by broth microdilution method; type: functional
# Chain of Hydroxycarboxylic acid receptor 2 (Q8TDS4 whole entry): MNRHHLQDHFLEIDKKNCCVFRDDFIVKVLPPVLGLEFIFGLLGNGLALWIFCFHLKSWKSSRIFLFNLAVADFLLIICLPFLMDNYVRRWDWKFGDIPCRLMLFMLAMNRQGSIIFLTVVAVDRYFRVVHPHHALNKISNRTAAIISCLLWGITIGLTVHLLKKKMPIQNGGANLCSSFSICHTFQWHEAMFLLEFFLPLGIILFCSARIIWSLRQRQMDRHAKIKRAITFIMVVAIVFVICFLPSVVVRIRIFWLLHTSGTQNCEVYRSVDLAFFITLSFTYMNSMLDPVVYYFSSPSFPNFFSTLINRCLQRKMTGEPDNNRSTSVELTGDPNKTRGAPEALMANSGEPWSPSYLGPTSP
molecule,measurement,setting,value
COc1ccc(C2c3c([nH]c(=O)[nH]c3=O)Oc3ncn(C(=S)Nc4ccccc4)c(=N)c32)cc1 (configuration not stated),pIC50,[1],5.68
same,pIC50,[2],5.61
same,IC50,[3],0.791 µM
same,pIC50,[4],5.58
same,pIC50,[5],4.57
N#CC1=C(N)C2C(=NC(n3[nH]c(N)cc3=O)=NC2c2ccc(Cl)cc2)OC1=O (configuration not stated),pIC50,[6],5.66
same,pIC50,[7],5.67
O=C(CSc1nc(=O)c2c(CCCCCl)cc(=O)oc2[nH]1)Oc1ccccc1,Emax,[8],85%
CC(=O)C1=C(C)Oc2[nH]c(=O)[nH]c(=O)c2C1c1cccc([N+](=O)[O-])c1 (configuration not stated),IC50,[1],5.21 µg/mL
same,IC50,[4],7.65 µg/mL
same,IC50,[9],4.8 µg/mL
GENTAMICIN,inhibition zone (IZ),[10],11 mm
same,inhibition zone (IZ),[11],18 mm
same,inhibition zone (IZ),[12],11 mm
same,MIC,[13],3.68 µg/mL
same,inhibition zone (IZ),[14],14 mm
same,MIC,[15],15.4 µg/mL
same,inhibition zone (IZ),[16],14 mm
same,inhibition zone (IZ),[17],11 mm
same,inhibition zone (IZ),[18],18 mm
same,inhibition zone (IZ),[19],17.3 mm
same,inhibition zone (IZ),[20],18 mm
same,inhibition zone (IZ),[21],14 mm
same,inhibition zone (IZ),[22],18 mm
same,inhibition zone (IZ),[23],14 mm
same,inhibition zone (IZ),[24],21.3 mm
same,inhibition zone (IZ),[25],11 mm
NC(=O)CSc1nc(=O)c2c(CCCCCl)cc(=O)oc2[nH]1,Emax,[8],87%
NC(=O)C1=C(N)Oc2[nH]nc(-c3ccccc3)c2C1c1coc2ccccc2c1=O (configuration not stated),Activity,[26],62.5%
Cc1nn(-c2ccccc2)c(-n2ccnc2)c1C1C(C#N)=C(N)Oc2c1c(=O)n(C)c(=O)n2C (configuration not stated),inhibition at 250 µg/mL,[27],37%
same,inhibition at 100 µg/mL,[28],30%
same,MIC,[29],100 µg/mL
same,MIC,[30],100 µg/mL
same,MIC,[31],500 µg/mL
same,IC50,[32],0.082 µg/mL
same,MIC,[33],200 µg/mL
COC1=CC(=O)C[C@@H](C)[C@]12Oc1c(Cl)c(OC)cc(OC)c1C2=O [GRISEOFULVIN],MIC,[31],500 µg/mL
